# Results as given in US20100069248A1, “HERBICIDE COMBINATION COMPRISING DIMETHOXYTRIAZINYL SUBSTITUTED DIFLUOROMETHANESULFONYLANILIDES” (BAYER CROPSCIENCE AG, priority 2008, published 2010).
# What was measured:
# Format in all cases: in vivo
# Stellaria media (STEME) = assay: Post-emergence action against weeds, greenhouse pots, visual scoring; conditions: 10 DAT
# Method: (§1) Seeds or rhizome pieces of mono- and dicotyledonous harmful and useful plants were placed in peat pots (diameter 4 cm) filled with sandy loam and then covered with soil. The pots were kept in a greenhouse under optimum conditions. In addition, harmful plants encountered in paddy rice cultivation were cultivated in pots with a water level 2 cm above the soil surface.
# (§2) About three weeks after the start of the cultivation, the test plants were treated at the 2- to 3-leaf stage. The herbicides, formulated as powder or liquid concentrates, were, either alone or in the combinations according to the invention, sprayed in various dosages on to the green parts of the plants using an application rate of 600 l of water/ha (converted). For further cultivation of the plants, the pots were then again kept under optimum conditions in a greenhouse.
# (§3) The visual scoring of the herbicidal effects was carried out in intervals up to 21 days after the treatment. Scoring was carried out in percent in comparison to the untreated control plants. 0%=no herbicidal activity, 100%=complete herbicidal activity=complete kill.
# (§4) The percentages from the treatments with the herbicides alone (=individual application) and with the combinations according to the invention (=mixtures) were employed to calculate interactions using the method of Colby. When the observed efficacies of the mixtures exceed the formal sum of the values of the tests with individual applications, they also exceed the expected value according to Colby, which is calculated using the formula below (cf. S. R. Colby; in Weeds 15 (1967) pp. 20 to 22):
# (§5) • A, B=activity of components A and B in percent at a dosage of a and b g of ai/ha (=gramm of active substance per hectare), respectively. • E=expected value in % at a dosage of a+b g of ai/ha.
# [1] = test system: Alopecurus myosuroides (ALOMY); assay: as above
# Method: as §1, §2, §3, §4, §5
# [2] = test system: Cyperus esculentus (CYPES); assay: as above; conditions: 21 DAT
# Method: as §1, §2, §3, §4, §5
# Setaria viridis (SETVI) = assay: as above; conditions: 21 DAT
# Method: as §1, §2, §3, §4, §5
# [3] = test system: Lolium multiflorum (LOLMU); assay: as above
# Method: as §1, §2, §3, §4, §5
# Zea mays (ZEAMX) = assay: Post-emergence action, greenhouse pots, visual scoring; conditions: component B 60 g of ai/ha
# Method: as §1, §2, §3, §4, §5
# [4] = test system: Amaranthus retroflexus (AMARE); assay: Post-emergence action against weeds, greenhouse pots, visual scoring; conditions: 21 DAT, component B 60 g of ai/ha
# Method: as §1, §2, §3, §4, §5
# Viola tricolor (VIOTR) = assay: as above
# Method: as §1, §2, §3, §4, §5
# Avena fatua (AVEFA) = assay: as above; conditions: 21 DAT, component B 60 g of ai/ha
# Method: as §1, §2, §3, §4, §5
# [5] = test system: Fallopia (ex Polygonum) convolvulus (POLCO); assay: as above; conditions: 21 DAT
# Method: as §1, §2, §3, §4, §5
# [6] = test system: Matricaria inodora (MATIN); assay: as above; conditions: 21 DAT
# Method: as §1, §2, §3, §4, §5
# [7] = test system: Triticum aestivum (TRZAS); assay: Post-emergence action, greenhouse pots, visual scoring; conditions: 10 DAT, component B 180 g of ai/ha
# Method: as §1, §2, §3, §4, §5
# [8] = 21 DAT, component B 60 g of ai/ha
# [9] = 21 DAT, component B 180 g of ai/ha
# [10] = 10 DAT, component B 60 g of ai/ha
# [11] = 10 DAT, component B 180 g of ai/ha
structure (smiles),measurement,setting,value
COc1nc(OC)nc(C(=O)c2cccc(F)c2N(C)S(=O)(=O)C(F)F)n1 [A-1],% activity found,Stellaria media (STEME); component A 4 g of ai/ha,70%
same,% activity found,Stellaria media (STEME); component A 12 g of ai/ha,70%
"COc1c(Cl)ccc(Cl)c1C(=O)O [B1-1, 3,6-dichloro-2-methoxybenzoic acid]",% activity found,[1]; [8],0%
same,% activity found,[1]; [9],0%
same,% activity found,[2]; component B 60 g of ai/ha,0%
same,% activity found,[2]; component B 180 g of ai/ha,0%
same,% activity found,Setaria viridis (SETVI); component B 60 g of ai/ha,0%
same,% activity found,Setaria viridis (SETVI); component B 180 g of ai/ha,20%
same,% activity found,[3]; [10],0%
same,% activity found,[3]; [11],10%
same,% activity found,[3]; [8],0%
same,% activity found,Zea mays (ZEAMX); 10 DAT,0%
"O=C(O)c1c(Cl)ccc2cc(Cl)cnc12 [B3-1, 3,7-dichloro-8-quinolinecarboxylic acid]",% activity found,[4],40%
same,% activity found,[1]; [10],0%
same,% activity found,[1]; [11],0%
same,% activity found,[1]; [8],0%
same,% activity found,[1]; [9],0%
same,% activity found,Viola tricolor (VIOTR); [11],20%
same,% activity found,Viola tricolor (VIOTR); [8],40%
same,% activity found,[2]; component B 60 g of ai/ha,0%
same,% activity found,[2]; component B 180 g of ai/ha,0%
same,% activity found,Avena fatua (AVEFA),0%
same,% activity found,[5]; component B 60 g of ai/ha,0%
same,% activity found,[5]; component B 180 g of ai/ha,0%
same,% activity found,[6]; component B 60 g of ai/ha,0%
same,% activity found,[6]; component B 180 g of ai/ha,0%
same,% activity found,[3]; [10],0%
same,% activity found,[3]; [11],0%
same,% activity found,Stellaria media (STEME); component B 60 g of ai/ha,10%
same,% activity found,Zea mays (ZEAMX); 10 DAT,0%
same,% activity found,Zea mays (ZEAMX); 21 DAT,0%
same,% activity found,[7],0%
